target: T1, human nicotinic acetylcholine receptor subtype a4b2 (Homo sapiens, UniProt P17787+P43681); assay: Characterization of hα4β2 positive allosteric modulators using FLIPR; format: cell-based; details: shift of nicotine pEC50 in presence of 10 μM test compound; HEK-293 cells stably expressing hα4β2; fluo-4 calcium FLIPR
T1 construct: expressed in transfected cells
Experimental: Characterization of hα4β2 Positive Allosteric Modulators Using FLIPR
The modulator activity is determined as a fluorescence-based assay using a Fluorometric Imaging Plate Reader (FLIPR) as described below in more detail.
HEK-hα4β2 cells were seeded on poly-D-lysin-coated 384 well microtiter plates and allowed to proliferate for 24 h. Dye loading was performed by incubating cells with 2 μM fluo-4/AM for 1.5 h at room temperature. Dye not taken up by the cells was removed by aspiration, followed by three washing cycles with NMDG Ringer buffer (containing in mM: 140 NMDG, 5 KCl, 1 MgCl2, 10 CaCl2, 10 HEPES, pH 7.4). The microtiter plates were then placed in the FLIPR and subjected to test solutions.
Full concentration-response curves of nicotine were generated in the absence and presence test compound. Background-subtracted nicotine-mediated calcium responses were determined and normalized to maximal nicotine control responses. Nicotine potencies (expressed as pEC50) were calculated and the difference between the functional potency in the absence and presence of test compound was determined (Δ pEC50).
The modulatory activity of compounds of the invention determined as ΔpEC50 values in the presence of 10 μM of test compound are presented in Table 1 below.

T1 sequence (P43681 29-627 limits assumed): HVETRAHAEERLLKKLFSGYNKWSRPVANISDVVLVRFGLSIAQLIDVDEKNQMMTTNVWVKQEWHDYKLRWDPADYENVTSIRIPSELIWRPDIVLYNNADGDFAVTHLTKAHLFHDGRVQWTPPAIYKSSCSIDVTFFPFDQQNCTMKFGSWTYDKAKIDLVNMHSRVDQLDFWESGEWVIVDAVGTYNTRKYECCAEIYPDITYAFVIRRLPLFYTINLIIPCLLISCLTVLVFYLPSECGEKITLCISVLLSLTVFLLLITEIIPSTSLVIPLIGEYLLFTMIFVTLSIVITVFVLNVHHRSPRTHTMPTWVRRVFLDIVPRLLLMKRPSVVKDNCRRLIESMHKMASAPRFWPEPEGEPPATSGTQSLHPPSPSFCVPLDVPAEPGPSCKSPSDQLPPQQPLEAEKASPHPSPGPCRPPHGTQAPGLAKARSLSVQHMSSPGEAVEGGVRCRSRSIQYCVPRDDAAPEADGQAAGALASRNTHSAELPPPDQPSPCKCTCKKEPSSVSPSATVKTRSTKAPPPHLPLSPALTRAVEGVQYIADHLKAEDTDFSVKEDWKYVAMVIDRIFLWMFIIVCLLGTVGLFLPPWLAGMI
T1 sequence (P17787 26-502): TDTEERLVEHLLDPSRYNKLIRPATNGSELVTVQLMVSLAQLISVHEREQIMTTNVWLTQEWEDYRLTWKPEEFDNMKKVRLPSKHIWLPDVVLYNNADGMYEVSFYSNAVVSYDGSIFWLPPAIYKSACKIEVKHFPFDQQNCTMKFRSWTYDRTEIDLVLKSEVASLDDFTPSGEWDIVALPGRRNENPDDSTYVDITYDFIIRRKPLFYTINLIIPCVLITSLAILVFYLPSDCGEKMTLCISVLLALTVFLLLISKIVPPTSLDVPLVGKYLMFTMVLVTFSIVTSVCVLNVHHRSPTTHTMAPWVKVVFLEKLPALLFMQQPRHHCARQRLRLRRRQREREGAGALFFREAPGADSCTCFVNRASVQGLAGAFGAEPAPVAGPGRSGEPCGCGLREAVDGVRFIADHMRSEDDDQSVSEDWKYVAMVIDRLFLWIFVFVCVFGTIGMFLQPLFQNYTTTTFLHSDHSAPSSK

| Structure (SMILES) | ΔpEC50 |
| --- | --- |
| Fc1cncc(-n2nnc(-c3cccnc3)n2)c1 [Compound A1, 3-Fluoro-5-[5-(3-pyridyl)tetrazol-2-yl]pyridine] | 1.5 |
| O=C(O)/C=C/C(=O)O.c1cncc(-c2nnn(-c3cccnc3)n2)c1 [Compound B1, 3-[2-(3-Pyridyl)tetrazol-5-yl]pyridine fumarate] | 1.8 |
| Fc1cncc(-c2nnn(-c3ccc(Cl)nc3)n2)c1 [Compound B19, 2-chloro-5-[5-(5-fluoro-3-pyridyl)tetrazol-2-yl]pyridine] | 1.6 |
| Clc1ccc(-c2nnn(-c3cccnc3)n2)cn1 [Compound B13, 2-Chloro-5-[2-(3-pyridyl)tetrazol-5-yl]pyridine] | 1.8 |
| Clc1ccc(-n2nnc(-c3cccnc3)n2)cn1 [Compound B17, 2-chloro-5-[5-(3-pyridyl)tetrazol-2-yl]pyridine] | 2.0 |
| Fc1cncc(-c2nnn(-c3cncc(F)c3)n2)c1 [Compound B10, 3-Fluoro-5-[2-(5-fluoro-3-pyridyl)tetrazol-5-yl]pyridine] | 1.3 |
| Fc1cncc(-c2nnn(-c3ccc(F)nc3)n2)c1 [Compound B11, 3-Fluoro-5-[2-(6-fluoro-3-pyridyl)tetrazol-5-yl]pyridine] | 1.4 |
| Fc1ccc(-n2nnc(-c3cccnc3F)n2)cn1 [Compound B24, 2-fluoro-3-[2-(6-fluoro-3-pyridyl)tetrazol-5-yl]pyridine] | 1.6 |
| Cc1ncccc1-n1nnc(-c2cccnc2)n1 [Compound B7, 2-Methyl-3-[5-(3-pyridyl)tetrazol-2-yl]pyridine] | 0.11 |
| Fc1cncc(-n2nnc(-c3ccc(F)nc3)n2)c1 [Compound B12, 2-Fluoro-5-[2-(5-fluoro-3-pyridyl)tetrazol-5-yl]pyridine] | 1.6 |
| Fc1cncc(-n2nnc(-c3ccc(Cl)nc3)n2)c1 [Compound B20, 2-chloro-5-[2-(5-fluoro-3-pyridyl)tetrazol-5-yl]pyridine] | 0.74 |
| COc1cncc(-n2nnc(-c3cccnc3)n2)c1 [Compound B3, 3-Methoxy-5-[5-(3-pyridyl)tetrazol-2-yl]pyridine] | −0.16 |
| Clc1cncc(-c2nnn(-c3cccnc3)n2)c1 [Compound B15, 3-Chloro-5-[2-(3-pyridyl)tetrazol-5-yl]pyridine] | 1.7 |
| Cc1ncccc1-c1nnn(-c2cccnc2)n1 [Compound B8, 2-Methyl-3-[2-(3-pyridyl)tetrazol-5-yl]pyridine] | −0.29 |
| Fc1cncc(-c2nnn(-c3cccnc3)n2)c1 [Compound B16, 3-Fluoro-5-[2-(3-pyridyl)tetrazol-5-yl]pyridine] | 1.7 |
| Cc1ccc(-n2nnc(-c3cccnc3)n2)cn1 [Compound B5, 2-Methyl-5-[5-(3-pyridyl)tetrazol-2-yl]pyridine] | 1.7 |
| Clc1cncc(-n2nnc(-c3cccnc3)n2)c1 [Compound B21, 3-chloro-5-[5-(3-pyridyl)tetrazol-2-yl]pyridine] | 0.8 |
| Brc1cncc(-c2nnn(-c3cccnc3)n2)c1 [Compound B23, 3-bromo-5-[2-(3-pyridyl)tetrazol-5-yl]pyridine] | 1.5 |
| Fc1cncc(-n2nnc(-c3cncc(Cl)c3)n2)c1 [Compound B22, 3-chloro-5-[2-(5-fluoro-3-pyridyl)tetrazol-5-yl]pyridine] | 1.1 |
| Cc1cncc(-n2nnc(-c3cccnc3)n2)c1 [Compound B6, 3-Methyl-5-[5-(3-pyridyl)tetrazol-2-yl]pyridine] | 0.16 |
| Fc1ccc(-n2nnc(-c3cncc(I)c3)n2)cn1 [Compound B25, 2-fluoro-5-[5-(5-iodo-3-pyridyl)tetrazol-2-yl]pyridine] | 0.58 |
| Brc1cncc(-n2nnc(-c3cccnc3)n2)c1 [Compound B2, 3-Bromo-5-[5-(3-pyridyl)tetrazol-2-yl]pyridine] | 0.55 |
| Fc1ccc(-n2nnc(-c3cccnc3)n2)cn1 [Compound B9, 2-Fluoro-5-[5-(3-pyridyl)tetrazol-2-yl]pyridine] | 1.9 |
| Cc1ccc(-c2nnn(-c3cccnc3)n2)cn1 [Compound B4, 2-Methyl-5-[2-(3-pyridyl)tetrazol-5-yl]pyridine] | 1.0 |
| Fc1ccc(-c2nnn(-c3cccnc3)n2)cn1 [Compound B14, 2-Fluoro-5-[2-(3-pyridyl)tetrazol-5-yl]pyridine] | 1.5 |
| Fc1ccc(-n2nnc(-c3cncc(Cl)c3)n2)cn1 [Compound B18, 3-chloro-5-[2-(6-fluoro-3-pyridyl)tetrazol-5-yl]pyridine] | 1.5 |
